Article PMC6318789 (Journal of the American Chemical Society, 2015)

Molecular target: p300 (Homo sapiens, UniProt Q09472)
Type: binding

Sequence of p300 (Q09472 323-423): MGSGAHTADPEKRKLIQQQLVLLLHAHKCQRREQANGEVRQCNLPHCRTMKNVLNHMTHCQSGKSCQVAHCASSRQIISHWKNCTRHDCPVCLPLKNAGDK
Sequence of p300 (Q16665 786-826 partner): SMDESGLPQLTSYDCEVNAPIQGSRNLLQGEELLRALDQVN

COc1ccc(C2(O)N=C3N=CC=C4c5ccccc5N=C2N43)cc1 (racemic) [compound 1, eudistidine A]
IC50: ~75 µM
